Assay results from patent publication US20120009280A1, “METHOD OF REDUCING THE RATE OF DEGRADATION OF A BIOLOGICAL MATERIAL” (Bio-Energy Ingredients Limited, priority 2009, published 2012).

How the values were obtained:
Escherichia coli = test: Spiking test of agar plates with Escherichia coli (kill versus inhibition); format: cell-based; details: treated sample with 5% (w/w) calcium oxide, Day 9, all sample dilutions
Description: When performing total viable counts (TVCs), the agar plates (when they were molten and containing 1 ml of the test sample dilution) were spiked with bacterial organisms (E. Coli and P. aeruginosa) of a known concentration. If the organisms grew, this would indicate that the conditions in the agar plate had not inhibited them. A control with no sample was run at the same time. […]
The plates were incubated at 30-35° C. for approximately 24 hours after which time the bacterial colonies were counted.
. […] This was performed in duplicate.

mould = test: Mould count of spent brewer's / wet distiller's grains stored at ambient temperature; format: cell-based
Summary of the method: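 Wet grain samples were mixed with a powdered treatment agent in a single initial mix, with no later treatment or agitation. Batches and untreated controls were kept under insect-proof screens at ambient temperature. Every seven days, a whole sample from each treatment went to a SANAS-approved microbiological laboratory. Mould counts were determined there following a procedure similar to Rosentrater et al. (2008).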

[1] = pH of suspensions of grain samples in distilled water or PBS; details: for pH: 1% (w/w) in distilled water
Description: The untreated sample (A) was compared visually against the corresponding quicklime-treated sample (B).
On Day 7, 10 g amounts of each sample were suspended in either 90 ml PBS or 90 ml sterile distilled water and shaken for 10 minutes. The pH of each suspension was then measured and compared.
On Day 9, 10 g of each sample was suspended in 90 ml PBS and shaken for 10 minutes. The pH was measured.

yeast = test: Yeast count of spent brewer's / wet distiller's grains stored at ambient temperature; format: cell-based
Description: Samples of Portion 1 (“AR”), Portion 3 (“SO”) and Portion 5 (“SH”) were then delivered to a microbiological testing facility about 15 kilometres from the treatment laboratory. Each was tested for initial total microbial, yeast and mould counts, respectively.
Separate untreated samples were similarly stored under insect-proof screens at ambient temperature for seven days (as shown in Tables 1 and 2). During the trial period the ambient temperature ranged from 11 to 33 degrees C.
(§1) The free moisture content on the initial spent brewer's grains was determined to be 78.1% m/m. After exposure to the environment for seven days, all of the samples were tested at a South African National Accreditation System (SANAS) approved microbiological testing facility. Each was tested for total micro-organism, yeast and mould counts to determine the affect of the various treatments. A similar procedure to that described in K. A. Rosentrater et al, Food Bioprocess Technol (2008) was used for the microbiological evaluation.
At the laboratory, the samples were thoroughly mixed and initially split into a first portion (Portion 1) and a second portion (Portion 2). Portion 1 was left untreated. A sample of Portion 1, was delivered immediately to a microbiological testing facility about 15 kilometres away from the treatment laboratory and was tested for initial total microbial, yeast and mould counts, respectively. No water removal prior to treatment was done in this experiment as was the case in Example 8 wherein a similar wet material was partially dewatered by pressing and the residue treated with 10% (w/w/) calcium oxide.
Samples from Portion 2 were subjected to treatment with varying amounts of a powdered, commercially-available calcium oxide containing approximately 94% calcium oxide (CaO) as shown in Table 32. The treatments varied from 2.5 to 10% (w/w) calcium oxide addition. The samples were stored in batches (according to the calcium oxide treatment) under insect-proof screens at ambient temperature for fifty six days. Separate untreated samples were similarly stored under insect-proof screens at ambient temperature for a total of 56 days. During the trial period the ambient temperature ranged from 10 to 30 degrees C. As this period was the southern hemisphere spring/early summer, the humidity as well as ambient temperatures varied widely.
as §1, with “79.4%” for “78.1%”
Samples from each treatment were drawn every seven days. No further calcium oxide treatment or agitation took place after the initial mix. In each case the entire sample was isolated and delivered to the microbiological testing facility.
The calcium oxide treatment trial described in Example 9 wherein wet distiller's grains were treated with 2.5%, 5% and 10.0% calcium oxide, respectively, versus untreated material was repeated using lower doses of calcium oxide. In this trial the same source of wet distiller's grains (again with now partial water removal prior to treatment) was treated. Also, the same protocol as described in Example 9 was applied, but at lower doses of calcium oxide i.e. 0.5%, 1.0%, 1.5%, 2.0% and 2.5%, respectively, versus untreated material.
In this trial the same source of wet distiller's grains (again with now partial water removal prior to treatment) was treated. Also, the same protocol as described in Example 9 was applied.

[2] = wet distiller's grains, 0.5% CaO (w/w), day 2
[3] = wet distiller's grains, 1.0% CaO (w/w), day 1
[4] = wet distiller's grains, 1.5% CaO (w/w), day 10
[5] = wet distiller's grains, 2.0% CaO (w/w), day 2
[6] = wet distiller's grains, 2.5% CaO (w/w), day 14
[7] = wet distiller's grains, 5.0% CaO (w/w), day 21
[8] = wet distiller's grains, 10.0% CaO (w/w), day 14

[O]=[Ca] [calcium oxide]
inhibitory effect on test organism in spiking test (Escherichia coli): did not demonstrate an inhibitory effect
Mould Count (mould; 5% CaO (w/w) powder, week 1): 10 cfu/gram
Mould Count (mould; 5% CaO (w/w) powder, week 2): 10 cfu/gram
Mould Count (mould; 5% CaO (w/w) powder, week 3): 10 cfu/gram
Mould Count (mould; 5% CaO (w/w) powder, week 4): 10 cfu/gram
Mould Count (mould; 5% CaO (w/w) powder, week 5): 10 cfu/gram
Mould Count (mould; wet distiller's grains, 0.5% CaO (w/w), day 1): <10 cfu/gram
Mould Count (mould; [2]): 30 cfu/gram
Mould Count (mould; wet distiller's grains, 0.5% CaO (w/w), day 3): 100 cfu/gram
Mould Count (mould; wet distiller's grains, 0.5% CaO (w/w), day 6): 37000 cfu/gram
Mould Count (mould; wet distiller's grains, 0.5% CaO (w/w), day 8): <10 cfu/gram
Mould Count (mould; [3]): <10 cfu/gram
Mould Count (mould; wet distiller's grains, 1.0% CaO (w/w), day 2): <10 cfu/gram
Mould Count (mould; wet distiller's grains, 1.0% CaO (w/w), day 3): <10 cfu/gram
Mould Count (mould; wet distiller's grains, 1.0% CaO (w/w), day 6): <10 cfu/gram
Mould Count (mould; wet distiller's grains, 1.0% CaO (w/w), day 8): <10 cfu/gram
Mould Count (mould; wet distiller's grains, 1.0% CaO (w/w), day 10): 91000 cfu/gram
Mould Count (mould; wet distiller's grains, 1.5% CaO (w/w), day 1): <10 cfu/gram
Mould Count (mould; wet distiller's grains, 1.5% CaO (w/w), day 2): <10 cfu/gram
Mould Count (mould; wet distiller's grains, 1.5% CaO (w/w), day 3): <10 cfu/gram
Mould Count (mould; wet distiller's grains, 1.5% CaO (w/w), day 6): <10 cfu/gram
Mould Count (mould; wet distiller's grains, 1.5% CaO (w/w), day 8): <10 cfu/gram
Mould Count (mould; [4]): <110 cfu/gram
Mould Count (mould; wet distiller's grains, 2.0% CaO (w/w), day 1): <10 cfu/gram
Mould Count (mould; [5]): <10 cfu/gram
Mould Count (mould; wet distiller's grains, 2.0% CaO (w/w), day 3): <10 cfu/gram
Mould Count (mould; wet distiller's grains, 2.0% CaO (w/w), day 6): <10 cfu/gram
Mould Count (mould; wet distiller's grains, 2.0% CaO (w/w), day 8): <10 cfu/gram
Mould Count (mould; wet distiller's grains, 2.0% CaO (w/w), day 10): <10 cfu/gram
Mould Count (mould; wet distiller's grains, 2.5% CaO (w/w), day 1): <10 cfu/gram
Mould Count (mould; wet distiller's grains, 2.5% CaO (w/w), day 2): <10 cfu/gram
Mould Count (mould; wet distiller's grains, 2.5% CaO (w/w), day 3): <10 cfu/gram
Mould Count (mould; wet distiller's grains, 2.5% CaO (w/w), day 6): <10 cfu/gram
Mould Count (mould; wet distiller's grains, 2.5% CaO (w/w), day 7): 10 cfu/gram
Mould Count (mould; wet distiller's grains, 2.5% CaO (w/w), day 8): <10 cfu/gram
Mould Count (mould; wet distiller's grains, 2.5% CaO (w/w), day 10): <10 cfu/gram
Mould Count (mould; [6]): 14,000 cfu/gram
Mould Count (mould; wet distiller's grains, 2.5% CaO (w/w), day 21): 170,000 cfu/gram
Mould Count (mould; wet distiller's grains, 2.5% CaO (w/w), day 42): 850,000 cfu/gram
Mould Count (mould; wet distiller's grains, 2.5% CaO (w/w), day 49): 320,000 cfu/gram
Mould Count (mould; wet distiller's grains, 2.5% CaO (w/w), day 56): 1,240,000 cfu/gram
Mould Count (mould; wet distiller's grains, 5.0% CaO (w/w), day 7): 10 cfu/gram
Mould Count (mould; wet distiller's grains, 5.0% CaO (w/w), day 14): 10 cfu/gram
Mould Count (mould; [7]): 150 cfu/gram
Mould Count (mould; wet distiller's grains, 5.0% CaO (w/w), day 42): 20 cfu/gram
Mould Count (mould; wet distiller's grains, 5.0% CaO (w/w), day 49): 90 cfu/gram
Mould Count (mould; wet distiller's grains, 5.0% CaO (w/w), day 56): 90 cfu/gram
Mould Count (mould; wet distiller's grains, 10.0% CaO (w/w), day 7): 10 cfu/gram
Mould Count (mould; [8]): 10 cfu/gram
Mould Count (mould; wet distiller's grains, 10.0% CaO (w/w), day 21): 10 cfu/gram
Mould Count (mould; wet distiller's grains, 10.0% CaO (w/w), day 42): 70 cfu/gram
Mould Count (mould; wet distiller's grains, 10.0% CaO (w/w), day 49): 80 cfu/gram
Mould Count (mould; wet distiller's grains, 10.0% CaO (w/w), day 56): 16 cfu/gram
pH ([1]; 0.5% CaO (w/w), day 1): 7.97
pH ([1]; 0.5% CaO (w/w), day 2): 8.06
pH ([1]; 0.5% CaO (w/w), day 3): 7.63
pH ([1]; 0.5% CaO (w/w), day 6): 7.38
pH ([1]; 0.5% CaO (w/w), day 8): 7.80
pH ([1]; 1.0% CaO (w/w), day 1): 8.86
pH ([1]; 1.0% CaO (w/w), day 2): 8.82
pH ([1]; 1.0% CaO (w/w), day 3): 9.19
pH ([1]; 1.0% CaO (w/w), day 6): 9.21
pH ([1]; 1.0% CaO (w/w), day 8): 7.89
pH ([1]; 1.0% CaO (w/w), day 10): 8.27
pH ([1]; 1.5% CaO (w/w), day 1): 9.10
pH ([1]; 1.5% CaO (w/w), day 2): 9.15
pH ([1]; 1.5% CaO (w/w), day 3): 9.95
pH ([1]; 1.5% CaO (w/w), day 6): 9.84
pH ([1]; 1.5% CaO (w/w), day 8): 9.10
pH ([1]; 1.5% CaO (w/w), day 10): 10.84
pH ([1]; 2.0% CaO (w/w), day 1): 10.68
pH ([1]; 2.0% CaO (w/w), day 2): 10.10
pH ([1]; 2.0% CaO (w/w), day 3): 9.48
pH ([1]; 2.0% CaO (w/w), day 6): 11.22
pH ([1]; 2.0% CaO (w/w), day 8): 9.76
pH ([1]; 2.0% CaO (w/w), day 10): 9.97
pH ([1]; 2.5% CaO (w/w), day 1): 11.48
pH ([1]; 2.5% CaO (w/w), day 2): 11.08
pH ([1]; 2.5% CaO (w/w), day 3): 11.41
pH ([1]; 2.5% CaO (w/w), day 6): 11.55
pH ([1]; 2.5% CaO (w/w), day 8): 10.29
pH ([1]; 2.5% CaO (w/w), day 10): 8.87
pH ([1]; 5% CaO (w/w) powder, week 1): 11.36
pH ([1]; 5% CaO (w/w) powder, week 2): 11.00
pH ([1]; 5% CaO (w/w) powder, week 3): 12.20
pH ([1]; 5% CaO (w/w) powder, week 4): 11.61
pH ([1]; 5% CaO (w/w) powder, week 5): 11.34
pH of treated wet distiller's grains ([1]; calcium oxide 0.5% (w/w), Example 14): below 8
Yeast Count (yeast; 5% CaO (w/w) powder, week 4): 10 cfu/gram
Yeast Count (yeast; [2]): <10 cfu/gram
Yeast Count (yeast; [3]): <10 cfu/gram
Yeast Count (yeast; [4]): <10 cfu/gram
Yeast Count (yeast; [5]): <10 cfu/gram
Yeast Count (yeast; [6]): 52,000 cfu/gram
Yeast Count (yeast; [7]): 10 cfu/gram
Yeast Count (yeast; [8]): 120 cfu/gram
